Assay results reported in the supplement of paper PMC11208160.

Assay: recombinant UMI read abundance after kanamycin selection (control-corrected) (log10(CPM+1)); higher = more efficient recombination; extreme values may be limits of the assay; sequences stand for … in AGTGCAGAGAAAATCGGCCAGTTTTCTCTGCCTGCAGTCCGCATGCCGTGGGACCCCTTGGGTTCTAACCTGTTGCCTAGATTTATGCAGCGGACTGCCTTTCTCCCAAAGTGATAAACCGG…AGGTTGGTTTCACT; site = the 11-nt donor
How it was run: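 The measure is log10(CPM+1) for recombinant UMIs. These were PCR-amplified across the donor–target junction and sequenced after Escherichia coli carrying a donor and donor-binding-loop pair library and a target plasmid with T7-inducible IS621 bridge recombinase was plated on IPTG (0.07 mM) plus kanamycin or unselected. CPM were averaged over two replicates and scaled by control-derived factors.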
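Note: IS621 bridge recombinase in Escherichia coli cells against a fixed T5 target plasmid.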

Sequence | recombinant UMI read abundance (log10)
TCCACCGCATGGACCGGTTTTCCCGGTAATCCGTATTTGCG (site TCCAACGCTCG) | 0
TCCACCGCATGGACCGGTTTTCCCGGTAATCCGTATTTGCG (site TCCACAGCTCG) | 0.00578
TCCACCGCATGGACCGGTTTTCCCGGTAATCCGTATTTGCG (site TCCACCACTCG) | 0.00973
TCCACCGCATGGACCGGTTTTCCCGGTAATCCGTATTTGCG (site TCCACCCCTCG) | 0.0195
TCCACCGCATGGACCGGTTTTCCCGGTAATCCGTATTTGCG (site TCCACCGCTAG) | 0.00776
TCCACCGCATGGACCGGTTTTCCCGGTAATCCGTATTTGCG (site TCCACCGCTCA) | 0.0193
TCCACCGCATGGACCGGTTTTCCCGGTAATCCGTATTTGCG (site TCCACCGCTCC) | 0.0232
TCCACCGCATGGACCGGTTTTCCCGGTAATCCGTATTTGCG (site TCCACCGCTCG) | 0.0267
TCCACCGCATGGACCGGTTTTCCCGGTAATCCGTATTTGCG (site TCCACCGCTCT) | 0.0151
TCCACCGCATGGACCGGTTTTCCCGGTAATCCGTATTTGCG (site TCCACCGCTGG) | 0
TCCACCGCATGGACCGGTTTTCCCGGTAATCCGTATTTGCG (site TCCACCGCTTG) | 0
TCCACCGCATGGACCGGTTTTCCCGGTAATCCGTATTTGCG (site TCCACCTCTCG) | 0.00739
TCCACCGCATGGACCGGTTTTCCCGGTAATCCGTATTTGCG (site TCCACGGCTCG) | 0
TCCACCGCATGGACCGGTTTTCCCGGTAATCCGTATTTGCG (site TCCACTGCTCG) | 0.0248
TCCACCGCATGGACCGGTTTTCCCGGTAATCCGTATTTGCG (site TCCAGCGCTCG) | 0.0215
TCCACCGCATGGACCGGTTTTCCCGGTAATCCGTATTTGCG (site TCCATCGCTCG) | 0.0351
TCCACCGCATGGACCGGTTTTCCCGGTAATCCGTATTTGCG (site TCCCCCGCTCG) | 0.1
TCCACCGCATGGACCGGTTTTCCCGGTAATCCGTATTTGCG (site TCCGCCGCTCG) | 0.0234
TCCACCGCATGGACCGGTTTTCCCGGTAATCCGTATTTGCG (site TCCTCCGCTCG) | 0.0203

Sequence | recombinant UMI read abundance (log10)
TCCACCGCATGGACCGGTTTTCCCGGTAATCCGTATTTGCG (site TCGACCGCTCG) | 0.023
TCCACCGCATGGACCGGTTTTCCCGGTAATCCGTATTTGCG (site TCTACCGCTCG) | 0.0356
TCCACCGCATGGACCGGTTTTCCCGGTAATCCGTATTTGCG (site TGCACCGCTCG) | 0.0462
TCCACCGCATGGACCGGTTTTCCCGGTAATCCGTATTTGCG (site TTCACCGCTCG) | 0.00717
TCCACCTCATGGACCGGTTTTCCCGGTAATCCGTATTTGCG (site TCCACCACTCG) | 0.00715
TCCACCTCATGGACCGGTTTTCCCGGTAATCCGTATTTGCG (site TCCACCCCTCG) | 0.0186
TCCACCTCATGGACCGGTTTTCCCGGTAATCCGTATTTGCG (site TCCACCGCTCG) | 0.0129
TCCACCTCATGGACCGGTTTTCCCGGTAATCCGTATTTGCG (site TCCACCTCTCG) | 0.0255
TCCACGCCATGGACCGGTTTTCCCGGTAATCCGTATTTGTA (site ACCACGCCTTA) | 0.0141
TCCACGCCATGGACCGGTTTTCCCGGTAATCCGTATTTGTA (site CCCACGCCTTA) | 0.038
TCCACGCCATGGACCGGTTTTCCCGGTAATCCGTATTTGTA (site GCCACGCCTTA) | 0.00791
TCCACGCCATGGACCGGTTTTCCCGGTAATCCGTATTTGTA (site TCCACGCCTTA) | 0.0284
TCCACGGCATGGACCGGTTTTCCCGGTAATCCGTATTTGCG (site TCCACAGCTCG) | 0.0432
TCCACGGCATGGACCGGTTTTCCCGGTAATCCGTATTTGCG (site TCCACCGCTCG) | 0.023
TCCACGGCATGGACCGGTTTTCCCGGTAATCCGTATTTGCG (site TCCACGGCTCG) | 0.0249
TCCACGGCATGGACCGGTTTTCCCGGTAATCCGTATTTGCG (site TCCACTGCTCG) | 0
TCCACTTCATGGACCGGTTTTCCCGGTAATCCGTATTTGCC (site TCCAATTCTGG) | 0
TCCACTTCATGGACCGGTTTTCCCGGTAATCCGTATTTGCC (site TCCACTTCTGG) | 0
TCCACTTCATGGACCGGTTTTCCCGGTAATCCGTATTTGCC (site TCCAGTTCTGG) | 0

Sequence | recombinant UMI read abundance (log10)
TCCACTTCATGGACCGGTTTTCCCGGTAATCCGTATTTGCC (site TCCATTTCTGG) | 0
TCCAGATCATGGACCGGTTTTCCCGGTAATCCGTATTTGGG (site TCCAGATCTCC) | 0
TCCAGTGCATGGACCGGTTTTCCCGGTAATCCGTATTTGCT (site TCCAGTGCTAG) | 0
TCCATTCCATGGACCGGTTTTCCCGGTAATCCGTATTTGGA (site TCCATTCCTTC) | 0.0134
TCCCAAACATGGACCGGTTTTCCCGGTAATCCGTATTTGCT (site TCCCAAACTAG) | 0.0138
TCCCACCCATGGACCGGTTTTCCCGGTAATCCGTATTTGAT (site TCCCACCCTAT) | 0.0298
TCCCGCCCATGGACCGGTTTTCCCGGTAATCCGTATTTGCT (site TCCCGCCCTAG) | 0.00858
TCCCTTCCATGGACCGGTTTTCCCGGTAATCCGTATTTGCG (site TCCCTTCCTCG) | 0
TCCGCTGCATGGACCGGTTTTCCCGGTAATCCGTATTTGAA (site TCCGCTGCTTT) | 0
TCCGGTGCATGGACCGGTTTTCCCGGTAATCCGTATTTGCC (site TCCGGTGCTGG) | 0
TCCTACCCATGGACCGGTTTTCCCGGTAATCCGTATTTGGT (site TCCTACCCTAC) | 0.00951
TCCTAGCCATGGACCGGTTTTCCCGGTAATCCGTATTTGTA (site TCCTAGCCTTA) | 0.0223
TCCTATTCATGGACCGGTTTTCCCGGTAATCCGTATTTGCC (site TCCAATTCTGG) | 0
TCCTATTCATGGACCGGTTTTCCCGGTAATCCGTATTTGCC (site TCCCATTCTGG) | 0
TCCTATTCATGGACCGGTTTTCCCGGTAATCCGTATTTGCC (site TCCGATTCTGG) | 0
TCCTATTCATGGACCGGTTTTCCCGGTAATCCGTATTTGCC (site TCCTATTCTGG) | 0
TCCTCCCCATGGACCGGTTTTCCCGGTAATCCGTATTTGCG (site TCCTCCCCTCG) | 0.00424
TCCTCCGCATGGACCGGTTTTCCCGGTAATCCGTATTTGCG (site TCCACCGCTCG) | 0.00517
TCCTCCGCATGGACCGGTTTTCCCGGTAATCCGTATTTGCG (site TCCCCCGCTCG) | 0.0138
